# According to US20240400553A1, “AMINE BASED MATRIPTASE 2 INHIBITORS AND USES THEREOF” (Disc Medicine, Inc., priority 2023, published 2024):
# Biological target: T1, Human Recombinant Matriptase 2 (Homo sapiens, UniProt Q8IU80)
# T1 construct: made in house
# T1 sequence (Q8IU80 1-811): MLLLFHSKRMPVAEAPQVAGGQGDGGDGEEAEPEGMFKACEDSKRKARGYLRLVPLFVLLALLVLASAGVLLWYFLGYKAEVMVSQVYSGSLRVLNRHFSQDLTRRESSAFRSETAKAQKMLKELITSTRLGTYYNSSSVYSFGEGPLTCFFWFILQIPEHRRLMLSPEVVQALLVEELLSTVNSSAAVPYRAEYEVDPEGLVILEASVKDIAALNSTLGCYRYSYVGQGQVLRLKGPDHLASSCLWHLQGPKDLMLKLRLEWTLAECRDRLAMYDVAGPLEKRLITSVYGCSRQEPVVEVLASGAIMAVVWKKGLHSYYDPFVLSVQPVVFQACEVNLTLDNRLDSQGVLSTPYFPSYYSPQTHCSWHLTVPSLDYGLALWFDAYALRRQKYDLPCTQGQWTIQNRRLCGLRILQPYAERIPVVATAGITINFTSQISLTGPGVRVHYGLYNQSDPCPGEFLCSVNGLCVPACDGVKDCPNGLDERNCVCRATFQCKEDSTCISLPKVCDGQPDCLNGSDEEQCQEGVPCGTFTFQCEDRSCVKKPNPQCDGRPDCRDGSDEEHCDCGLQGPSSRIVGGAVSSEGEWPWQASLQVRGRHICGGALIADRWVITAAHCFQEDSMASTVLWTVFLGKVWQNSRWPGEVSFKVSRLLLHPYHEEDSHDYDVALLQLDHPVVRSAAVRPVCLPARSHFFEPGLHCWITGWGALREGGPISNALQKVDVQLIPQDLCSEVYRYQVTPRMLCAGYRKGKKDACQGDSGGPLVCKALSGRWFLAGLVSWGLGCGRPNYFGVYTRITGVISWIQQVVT
# Experiment: Matriptase 2 inhibition, fluorescence based assay (Method I)
# Format: biochemical
# Conditions: Table A; Ki of Matriptase-2; read-out: Mat-2 Ki
# In short: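 In-house recombinant enzyme (3.5 nM), preincubated 30 min with compound, then Boc-Gln-Ala-Arg-AMC substrate (62 μM) in 50 mM Tris pH 7.5, 150 mM NaCl, 0.01% gelatin, 1% DMSO, 25 °C. Fluorescence (Ex 360/Em 480 nm) read 60 min after substrate; IC50 from variable-slope sigmoidal fit of % inhibition.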
row,Ki [nM],SMILES
1,≤ 100,"NCc1ccc2cc(C(=O)O)n(Cc3cc(NS(=O)(=O)Cc4ccccc4)cc4ccccc34)c2n1 [Compound 62, 6-(aminomethyl)-1-{[3-(phenylmethanesulfon-amido)naphthalen-1-yl]-methyl}-1H-pyrrolo[2,3-b]pyridine-2-carboxylic acid]"
2,≤ 100,"Cn1ccc(COC(=O)c2cc3ccc(CN)nc3n2Cc2cc(NS(=O)(=O)Cc3ccccc3)cc3ccccc23)n1 [Compound 61, (1-methyl-1H-pyrazol-3-yl)methyl 6-(amino-methyl)-1-{[3-(phenyl-methanesulfonamido)-naphthalen-1-yl]methyl}-1H-pyrrolo[2,3-b]pyr-idine-2-carboxylate]"
3,≤ 100,"NCc1ccc2cc(C(=O)OCCN3CCNCC3)n(Cc3cc(NS(=O)(=O)Cc4ccsc4)cc4ccccc34)c2n1 [Compound 156, 2-(piperazin-1-yl)ethyl 6-(aminomethyl)-1-({3-[(thiophen-3-yl)methane-sulfonamidoJnaphthalen-1-yl}methyl)-1H-pyr-rolo[2,3-b]pyridine-2-carboxylate]"
4,≤ 100,"CN1CCC(OC(=O)c2cc3ccc(CN)nc3n2Cc2cc(NS(=O)(=O)Cc3ccccc3)cc3ccccc23)CC1 [Compound 18, 1-methylpiperidin-4-yl 6-(aminomethyl)-1-{[3-(phenylmethanesulfon-amido)naphthalen-1-yl]-methyl}-1H-pyrrolo[2,3-b]pyridine-2-carboxylate]"
5,≤ 100,"Cc1cscc1CS(=O)(=O)Nc1cc(Cn2c(C(=O)OCC3CCN(C)CC3)cc3ccc(CN)nc32)c2ccccc2c1 [Compound 163, (1-methylpiperidin-4-yl)-methyl 6-(aminomethyl)-1-({3-[(4-methylthio-phen-3-yl)methanesul-fonamido]naphthalen-1-yl}methyl)-1H-pyrrolo-[2,3-b]pyridine-2-car-boxylate]"
6,≤ 100,"CN1CCC(CNC(=O)c2cc3ccc(CN)nc3n2Cc2cc(NS(=O)(=O)Cc3ccccc3)cc3ccccc23)CC1 [Compound 12, 6-(aminomethyl)-N-[(1-methylpiperidin-4-yl)-methyl]-1-{[3-(phenyl-methanesulfonamido)-naphthalen-1-yl]meth-yl}-1H-pyrrolo[2,3-b]-pyridine-2-carboxamide]"
7,100 to 500,"NCc1ccc2cc(C(=O)OCCC3CCOCC3)n(Cc3cc(NS(=O)(=O)Cc4ccccc4)cc4ccccc34)c2n1 [Compound 102, 2-(oxan-4-yl)ethyl 6-(aminomethyl)-1-{[3-(phenylmethanesulfon-amido)naphthalen-1-yl]-methyl}-1H-pyrrolo[2,3-b]pyridine-2-carboxylate]"
8,100 to 500,"CN(C)C(=O)COC(=O)c1cc2ccc(CN)nc2n1Cc1cc(NS(=O)(=O)Cc2ccccc2)cc2ccccc12 [Compound 139, (dimethylcarbamoyl)-methyl 6-(aminomethyl)-1-{[3-(phenylmethane-sulfonamido)naphthalen-1-yl]methyl}-1H-pyrrolo-[2,3-b]pyridine-2-car-boxylate]"
9,100 to 500,"NCc1ccc2cc(C(=O)OCCO)n(Cc3cc(NS(=O)(=O)Cc4ccccc4)cc4ccccc34)c2n1 [Compound 82, 2-hydroxyethyl 6-(amino-methyl)-1-{[3-(phenyl-methanesulfonamido)-naphthalen-1-yl]methyl}-1H-pyrrolo[2,3-b]pyr-idine-2-carboxylate]"
10,≤ 100,"NCc1ccc2cc(C(N)=O)n(Cc3cc(NS(=O)(=O)Cc4ccccc4)cc4ccccc34)c2n1 [Compound 57, 6-(aminomethyl)-1-{[3-(phenylmethanesulfon-amido)naphthalen-1-yl]-methyl}-1H-pyrrolo[2,3-b]pyridine-2-carboxamide]"
11,≤ 100,"CN1CCC(COC(=O)c2cc3ccc(CN)nc3n2Cc2cc(NS(=O)(=O)Cc3cccs3)cc3ccccc23)CC1 [Compound 146, (1-methylpiperidin-4-yl)-methyl 6-(aminometh-yl)-1-({3-[(thiophen-2-yl)methanesulfonamido]-naphthalen-1-yl}methyl)-1H-pyrrolo[2,3-b]pyr-idine-2-carboxylate]"
12,100 to 500,CC(C)(C)n1nccc1COC(=O)c1cc2ccc(CN)nc2n1Cc1cc(NS(=O)(=O)Cc2ccccc2)cc2ccccc12 [Compound 110]
13,≤ 100,"CNCCNC(=O)c1cc2ccc(CN)nc2n1Cc1cc(NS(=O)(=O)Cc2ccccc2)cc2ccccc12 [Compound 76, 6-(aminomethyl)-N-[2-(methylamino)ethyl]-1-{[3-(phenylmethane-sulfonamido)naphthalen-1-yl]methyl}-1H-pyr-rolo[2,3-b]pyridine-2-carboxamide]"

# Same assay, conditions: Table A; Ki of Matriptase-2 given as class symbols; read-out: Mat-2 Ki
row,Ki [nM],SMILES
1,≤ 100,"NCc1ccc2cc(C(=O)O)n(Cc3cc(NS(=O)(=O)CCN4CCNCC4)cc4ccccc34)c2n1 [Compound 214, 6-(aminomethyl)-1-({3-[2-(piperazin-1-yl)-ethanesulfonamido]-naphthalen-1-yl}meth-yl)-1H-pyrrolo[2,3-b]-pyridine-2-carboxylic acid]"
2,100 to 500,"NCc1ccc2cc(C(=O)O)n(Cc3cc(NS(=O)(=O)Cc4ccccc4)cc4cccc(O)c34)c2n1 [Compound 360, 6-(aminomethyl)-1-((8-hydroxy-3-((phenylmethyl)sulfonamido)naphthalen-1-yl)methyl)-1H-pyrrolo[2,3-b]pyridine-2-carboxylic acid]"
3,100 to 500,"NCc1ccc2cc(C(=O)O)n(Cc3cc(NS(=O)(=O)[C@H]4CCNC4)cc4ccccc34)c2n1 [Compound 259, 6-(aminomethyl)-1-({3-[(3S)-pyrrolidine-3-sul-fonamido]naphthalen-1-yl}methyl)-1H-pyrrolo-[2,3-b]pyridine-2-car-boxylic acid]"
4,100 to 500,"CN(C)CCCCOC(=O)c1cc2ccc(CN)cc2n1Cc1cc(NS(=O)(=O)Cc2ccccc2)cc2ccccc12 [Compound 384, 4-(dimethylamino)butyl 6-(aminomethyl)-1-{[3-(phenylmethanesulfon-amido)naphthalen-1-yl]-methyl}-1H-indole-2-carboxylate]"
5,500 to 3000,"CN1CCC(COC(=O)c2cc3ccc(CN)nc3n2Cc2cc(NS(=O)(=O)CC[C@H]3CCCN3)cc3ccccc23)CC1 [Compound 281, (1-methylpiperidin-4-yl)methyl 6-(aminometh-yl)-1-[(3-{2-[(2R)-pyr-rolidin-2-yl]ethanesul-fonamido}naphthalen-1-yl)methyl]-1H-pyrrolo-[2,3-b]pyridine-2-car-boxylate]"
6,≤ 100,"CN1CCC(COC(=O)c2cc3ccc(CN)cc3n2Cc2cc(NS(=O)(=O)Cc3ccccc3)cc3ccccc23)CC1 [Compound 376, (1-methylpiperidin-4-yl)-methyl 6-(aminomethyl)-1-1{[3-(phenylmethane-sulfonamido)naphthalen-1-yl]methyl}-1H-indole-2-carboxylate]"
7,500 to 3000,COC[C@H]1CCCN1C(=O)Nc1cc(Cn2c(C(=O)O)cc3ccc(CN)nc32)c2ccccc2c1 [Compound 307]
8,100 to 500,"NCc1ccc2cc(-c3noc(=O)[nH]3)n(Cc3cc(NS(=O)(=O)Cc4ccccc4)cc4ccccc34)c2n1 [Compound 353, N-(4-((6-(aminomethyl)-2-(5-hydroxy-1,2,4-oxadiazol-3-yl)-1H-pyrrolo[2,3-b]pyridin-1-yl)methyl)naphthalen-2-yl)-1-phenylmethanesulfonamide]"
9,100 to 500,"NCc1ccc2cc(C(=O)O)n(Cc3cc(NS(=O)(=O)C[C@H]4COCCN4)cc4ccccc34)c2n1 (racemic) [Compound 261, 6-(aminomethyl)-1-({3-[(morpholin-3-l)methane-sulfonamido]naphthalen-1-yl}methyl)-1H-pyr-rolo[2,3-b]pyridine-2-carboxylic acid]"
10,100 to 500,CCOC(=O)c1cc2ccc(CN)nc2n1Cc1cc(NS(=O)(=O)Cc2ccsc2)cc2ccccc12 [Compound 291]
11,≤ 100,"C[C@@H](C(=O)N(C)C)S(=O)(=O)Nc1cc(Cn2c(C(=O)O)cc3ccc(CN)nc32)c2ccccc2c1 (racemic) [Compound 255, rac-6-(aminomethyl)-1-({3-(dimethylcarbam-oyl)ethanesulfonamido]-naphthalen-1-yl}methyl)-1H-pyrrolo[2,3-b]pyr-idine-2-carboxylic acid]"
12,500 to 3000,"NCc1ccc2cc(C(=O)O)n(Cc3cc(NS(=O)(=O)C4CCCCC4)cc4ccccc34)c2n1 [Compound 279, 6-(aminomethyl)-1-[(3-cyclohexanesulfon-amidonaphthalen-1-yl)-methyl]-1H-pyrrolo[2,3-b]pyridine-2-carboxylic acid]"
13,500 to 3000,CC1(O)CCN(C(=O)Nc2cc(Cn3c(C(=O)O)cc4ccc(CN)nc43)c3ccccc3c2)CC1 [Compound 300]

# Same assay, conditions: Table B; Human Recombinant Matriptase 2, 3.5 nM enzyme, 62 μM substrate, 30 mins preincubation; read-out: Mean Ki
row,Ki [nM],SMILES
1,≤ 100,NCc1ccc2cc(C(=O)NCc3ccc(N)cc3)n(Cc3cc(NS(=O)(=O)Cc4ccccc4)cc4ccccc34)c2n1 [Compound 2.24]
